Read-outs that look alike come from different tables or passages of the source.
Legend:
[1] = system: human SKM-1 acute myeloid leukemia cells; test: SKM-1 antiproliferation cell-based assay (ATPlite); settings: Homo sapiens, SKM-1, 96 h, SKM-1 antiproliferation assay, 4 days, Table C2
In short: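 Log-phase cells in RPMI 1640/15% FBS were seeded at 34722 cells/mL and exposed for 4 days to nine-concentration DMSO serial dilutions in triplicate. Viability was read as ATP luminescence (ATPlite 1step), and IC50 values came from variable-slope non-linear regression.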

[2] = molecular target: T1, human BRD4 bromodomain II (Homo sapiens, UniProt O60885); test: Bromodomain binding assay (AlphaScreen), BRD4 BDII; settings: AlphaScreen assay, read-out: BRD4 BDII IC50
T1 construct: human BRD4 bromodomain II [based on Genbank NM_058243, residues 349-460]; host or cells: E. coli
In short: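 AlphaScreen competition: His6-BRD4 BDI (aa 44-170) or BDII (aa 349-460) vs biotin-H4(1-21) K5/K8/K12/K16Ac peptide; Ni-chelate acceptor/streptavidin donor beads. HEPES pH 7.5, NaCl, CHAPS, BSA, 1% DMSO; RT. 10-pt 3-fold titration, % peptide binding fitted → IC50.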

[3] = molecular target: T2, human BRD4 bromodomain I (Homo sapiens, UniProt O60885); test: Bromodomain binding assay (AlphaScreen), BRD4 BDI; settings: Table C1
T2 construct: human BRD4 bromodomain I [residues 44-170]; host or cells: E. coli
Protocol: Bromodomain Binding Assay
The bromodomain binding assay utilizes AlphaScreen technology. Compounds compete with a biotinylated peptide ligand (from histone H4: aa 1-21, K5/K8/K12/K16Ac-biotin) for binding to a hexahistidine (His6)-tagged bromodomain. Peptide binding is detected by fluorescence signal after singlet oxygen energy transfer from peptide-bound AlphaScreen streptavidin-coated donor beads to His6-tagged bromodomain-bound nickel-chelate acceptor beads (PerkinElmer). Briefly, 8 μL 2.5× bromodomain (E. coli expressed, N-terminal His6-tagged human BRD4 bromodomain II [based on Genbank NM_058243, residues 349-460] or N-terminal His6-tagged human BRD4 bromodomain I [residues 44-170]) in reaction buffer (50 mM HEPES [pH 7.5], 100 mM NaCl, 0.05% CHAPS, 0.1% BSA, 1% DMSO) is added to wells of an assay plate (384-well low flange white, flat bottom, polystyrene microplate, Corning #3572; buffer only is added to some wells as a negative control). A compound concentration series (10 concentrations, 3-fold serial dilutions previously prepared in 100% DMSO, or 100% DMSO only negative control) is delivered to the assay plate with an Echo 550 acoustic liquid handler (Labcyte), followed by plate centrifugation and incubation for 30 minutes at room temperature. Then 4 μL 5× biotinylated peptide ligand is added, followed by plate centrifugation and gentle shaking for 30 minutes at room temperature to mix. After this incubation, 4 μL 5× donor beads are added, and the plate is centrifuged, followed by brief gentle shaking to mix. Finally, 4 μL 5× acceptor beads are added, and the plate is centrifuged, followed by gentle shaking for 60 minutes at room temperature in the dark. AlphaScreen signal (excitation/emission: 680 nm/520-620 nm) is detected with an EnSpire multimode plate reader (PerkinElmer). Percentage peptide binding is plotted as a function of concentration, and curve fitting is used to determine competitive compound binding ICsos.

CC(=O)Nc1ccc(-c2cccc(-c3cccc(N4CCNCC4)c3)c2O)cc1F [Example 109, N-(3-Fluoro-2′-hydroxy-3″-(piperazin-1-yl)-[1,1′:3′,1″-terphenyl]-4-yl)acetamide]
GI50 [1]: 300 to 3000 nM
IC50 ([2]; Table C1): 1 to 10 nM
IC50 ([2]; Table C2): 1 to 10 nM
IC50 [3]: > 100 nM

CC(=O)Nc1ccc(-c2cccc(-c3ccnc(N4CCNCC4)c3)c2O)cc1F [Example 163, N-(3-fluoro-2′-hydroxy-3′-(2-(piperazin-1-yl)pyridin-4-yl)-[1,1′-biphenyl]-4-yl)acetamide]
GI50 [1]: 30 to 300 nM
IC50 ([2]; Table C1): 1 to 10 nM
IC50 ([2]; Table C2): 1 to 10 nM
IC50 [3]: > 100 nM

CC(=O)Nc1ccc(-c2cccc(-c3cccc(N4CCNCC4)c3)c2O)cc1Cl [Example 171, N-(3-chloro-2′-hydroxy-3″-(piperazin-1-yl)-[1,1′:3′,1″-terphenyl]-4-yl)acetamide]
IC50 ([2]; Table C1): 1 to 10 nM
IC50 ([2]; Table C2): 1 to 10 nM
IC50 [3]: > 100 nM

CN1CCN(c2ccc(-c3cccc(-c4ccnc(N5CCNCC5)c4)c3O)cc2Cl)C1=O [Example 245, 1-(3-Chloro-2′-hydroxy-3′-(2-(piperazin-1-yl)pyridin-4-yl)-[1,1′-biphenyl]-4-yl)-3-methylimidazolidin-2-one]
GI50 [1]: 30 to 300 nM
IC50 ([2]; Table C1): 1 to 10 nM
IC50 ([2]; Table C2): 1 to 10 nM
IC50 [3]: > 100 nM

CN1CCN(c2ccc(-c3cc(F)cc(-c4ccnc(N5CCNCC5)c4)c3O)cc2Cl)C1=O [Example 297, 1-(3-chloro-5′-fluoro-2′-hydroxy-3′-(2-(piperazin-1-yl)pyridin-4-yl)-[1,1′-biphenyl]-4-yl)-3-methylimidazolidin-2-one]
GI50 [1]: 30 to 300 nM
IC50 ([2]; Table C1): 1 to 10 nM
IC50 ([2]; Table C2): 1 to 10 nM
IC50 [3]: > 100 nM

Cn1ccn(-c2ccc(-c3cc(F)cc(-c4ccnc(N5CCNCC5)c4)c3O)cc2Cl)c1=O [Example 365, 1-(3-chloro-5′-fluoro-2′-hydroxy-3′-(2-(piperazin-1-yl)pyridin-4-yl)-[1,1′-biphenyl]-4-yl)-3-methyl-1H-imidazol-2(3H)-one]
GI50 [1]: 0.3 to 30 nM
IC50 ([2]; Table C1): 1 to 10 nM
IC50 ([2]; Table C2): 1 to 10 nM
IC50 [3]: > 100 nM

C[C@@H]1CN(c2cc(-c3cc(F)cc(-c4ccc(-n5ccn(C)c5=O)c(Cl)c4)c3O)ccn2)CCN1 [Example 413, (R)-1-(3-chloro-5′-fluoro-2′-hydroxy-3′-(2-(3-methylpiperazin-1-yl)pyridin-4-yl)-[1,1′-biphenyl]-4-yl)-3-methyl-1H-imidazol-2(3H)-one]
GI50 [1]: 0.3 to 30 nM
IC50 ([2]; Table C1): 0.01 to 1 nM
IC50 ([2]; Table C2): 0.01 to 1 nM
IC50 [3]: > 100 nM

— patent US20250179059A1 (The Regents of the University of California, priority 2021, published 2025)
